This is an account of results in patent publication US20190060239A1, “Technology for the Preparation of Microparticles” (Ansun Biopharma, Inc., priority 2007, published 2019).

Molecules are shown by their SMILES.

A short description of series [1]: Microsphere quality score by light microscopy (scoring system of Table 13). Format: physicochemical. The conditions noted are these: for Microsphere Quality: compound 2 mg/ml. The procedure: For each of the compounds listed in A-D above, and for DAS181, cocktail solutions containing 2 mg/ml of compound dissolved in an aqueous solvent and various counterions, antisolvents and pH, as listed below, were prepared in a 96-well microtiter plate (0.1 ml cocktail/well) at room temperature. Control solutions contained either solvent or antisolvent alone, with or without the counterion. Cocktails were cooled by placing in a freezer. The chilled plates were transferred onto pre-chilled (−45° C.) shelves of a Millrock Lab Series Lyophilizer, and the vacuum was applied. The frozen cocktail solutions were allowed to lyophilize for 16 hours.
The lyophilized powders from the bottoms of the wells were transferred onto glass slides and analyzed by light microscopy for appearance. The quality of the product microspheres was scored based on the uniformity of the microspheres, the absence of undesirable non-microsphere particles (glass-like crystalline forms), and the absence of aggregates.
Arginine was used as counterion and isopropanol was used as antisolvent. Concentrations of each of the cocktail components—the compound, the counterion and the antisolvent—were varied as shown below in Table 15, and the effect on microsphere quality assessed.
Experiments were performed to evaluate the effect of antisolvent and counterion concentration variation on the formation of microspheres. The peptides leuprolide and somatostatin, and the antibiotics vancomycin and tobramycin, were tested under a variety of conditions for forming microspheres. Samples were analyzed in 96-well plates as described in the previous Examples.
The experiments were performed using PGI2 and an analog of PGI2, Ciprostene, at a concentration of 2 mg/ml. Cocktail solutions were mixed at room temperature, then cooled by placing in a freezer. The chilled plates were transferred onto pre-chilled (−45° C.) shelves of a Millrock Lab Series Lyophilizer, and the vacuum was applied. The frozen cocktail solutions were allowed to lyophilize for 16 hours.
Because the resulting prostaglandin microspheres are hygroscopic, upon microsphere initiation, the humidity was maintained at low levels during the experiments, using a nitrogen gas tank attached to the backfill system on the lyophilizer. Each of the reaction tubes was flushed with N2. In addition, the backfill valve on the lyophilizer was left open to continually flush a low humidity atmosphere over the samples. The microscope used to visualize the resulting microspheres was contained within a plastic bag that was continually purged with dry N2. Sample tubes were placed under the bag to equilibrate for approximately 30 seconds, before opening and spreading onto the glass slide.
The compound/counterion/antisolvent conditions were as follows:
Experiments were performed with 200 μl of each of the above cocktail solutions in a 2 ml lyophilization bottle (first flash freeze condition), and 25 μl of each of the above cocktail solutions in a PCR tube (second flash freeze condition). The samples in the lyophilization bottles took approximately 15 seconds to freeze. The samples in the PCR tubes took approximately 3 seconds or less to freeze.
The cocktails in the 96-well plates were cooled by placing in a freezer. The chilled plates were transferred onto pre-chilled (−45° C.) shelves of a Millrock Lab Series Lyophilizer, and a vacuum was applied. The frozen cocktail solutions were allowed to lyophilize for 16 hours.
The lyophilized powders from the bottoms of the wells were transferred onto glass slides and analyzed by light microscopy for appearance.

The conditions of series [2]: cited from earlier work.
The nature of series [3]: Microsphere formation, size and appearance by light microscopy. Format: physicochemical.
The conditions of series [4]: Bombuwala et. al., Beilstein J. Org. Chem. 2006, 2:13; cited from earlier work.
A short description of series [5]: Cascade Impaction of vancomycin microspheres, New Generation Impactor. Format: physicochemical. The procedure: Vancomycin was dissolved in aqueous buffer at a final concentration of 10 mg/ml. The cocktail contained 5 mM sodium citrate pH 5.0 as counterion and 15% v/v n-propanol as anti-solvent. A 2 ml aliquot of cocktail was frozen in a 10-ml lyophilization vial placed in a −80° C. freezer for 1 hour. The frozen vial was transferred onto a −45° C. lyophilizer shelf and freeze dried for 36 hours.
The microspheres prepared as described in Example 5 were tested by Cascade Impaction using a New Generation Impactor. The deposition of pharmaceuticals in the respiratory tract can be predicted by the aerodynamic behavior of particles (microspheres) on the stages/collection plates of the cascade impactor.
The microspheres (10 mg) were loaded into HPMC (hydroxypropyl methylcellulose) capsule. The capsule was placed into a CycloHaler (PharmaChemie) dry powder inhaler and subjected to cascade impaction. The collection plates of the impactor representing various areas/stages of deposition post-inhalation (trachea, primary and secondary bronchi, terminal bronchi, alveoli, etc.) were coated with silicon spray to prevent bouncing of the microspheres. The microspheres from the stages and collection plates were recovered into a phosphate buffered saline containing 0.1% Tween, and the amount of deposited vancomycin recovered from each stage and collection plate was quantified by measuring absorbance at 280 nm.

For the compound `CCCCC[C@H](O)/C=C/[C@H]1[C@H](O)C[C@]2(C)C/C(=C\CCCC(=O)O)C[C@H]12` [Ciprostene], the “Microsphere Quality” value in series [1] (2 mM Arginine, pH 9, 20% n-propanol, 0% t-butanol) was 7/8; in series [1] (2 mM Arginine, pH 9, 20% n-propanol, 30% t-butanol), 6/7; in series [1] (2 mM PEI, pH 10.75, 30% n-propanol, 0% t-butanol) it was 6/7; in series [1] (2 mM TEA, pH 11, 20% n-propanol, 0% t-butanol), 4/5; in series [1] (2 mM TEA, pH 11, 20% n-propanol, 5% t-butanol), 8/7; in series [1] (2 mM TEA, pH 11, 20% n-propanol, 55% t-butanol), 6/7. For the same compound, the “Microsphere Quality” value in series [1] (2 mM TEA, pH 11, 20% n-propanol, 70% t-butanol) is on record as 5/6; in series [1] (2 mM TEA, pH 11, 30% n-propanol, 0% t-butanol) it was 3/4. Also, in series [2], the “solubility in water / aqueous solutions” value is recorded as “not highly soluble in aqueous solutions”.

Take `CCCCC[C@H](O)/C=C/[C@@H]1[C@H]2C/C(=C/CCCC(=O)O)O[C@H]2C[C@H]1O` [PGI2]: the API half life entry in series [2] (at physiological pH) is given as “on the order of minutes”. The “solubility in water / aqueous solutions” value in series [2] is “higher solubility in water”.

On to `CC(=O)O[C@H]1C(=O)[C@@]2(C)[C@H]([C@H](OC(=O)c3ccccc3)[C@]3(O)C[C@H](OC(=O)[C@H](O)[C@@H](NC(=O)c4ccccc4)c4ccccc4)C(C)=C1C3(C)C)[C@]1(OC(C)=O)CO[C@@H]1C[C@@H]2O` [Paclitaxel], for which, in series [1] (both flash freeze conditions, Paclitaxel/citrate pH 5.0/90% t-butanol), the “appearance after flash freeze” value is given as “mostly crystalline”. The “organic solvent concentration at which paclitaxel precipitated” value in series [3] (2 mg/ml paclitaxel, isopropanol, t-butanol or DMSO with 2 mM Na-citrate buffer pH 5.0) is recorded as at most 25%. For the same compound, the “log P (log of the octanol/water partition coefficient)” value in series [4] is “higher than 3”.

As to `CN[C@H](CC(C)C)C(=O)N[C@H]1C(=O)N[C@@H](CC(N)=O)C(=O)N[C@H]2C(=O)N[C@H]3C(=O)N[C@H](C(=O)N[C@H](C(=O)O)c4cc(O)cc(O)c4-c4cc3ccc4O)[C@H](O)c3ccc(c(Cl)c3)Oc3cc2cc(c3O[C@@H]2O[C@H](CO)[C@@H](O)[C@H](O)[C@H]2O[C@H]2C[C@](C)(N)[C@H](O)[C@H](C)O2)Oc2ccc(cc2Cl)[C@H]1O` [Vancomycin], the “Microsphere Quality” value in series [1] (Na-citrate, pH 5.0 7.5 mM, Isopropanol 5%) was 9/8; in series [1] (Na-citrate, pH 5.0 […], Isopropanol 5%), 9/8. Besides, the microsphere rating in series [1] (pH 5) is given as 9/10. Besides, the “Percent Deposition of Vancomycin” value is given as 37.57% in series [5] (Capsule + device, size cut-off NA); 10.48% in series [5] (Throat, size cut-off >10 microns, oral cavity); 3.33% in series [5] (impactor component 1, size cut-off >8.06 microns, Oral cavity/pharynx); 7.71% in series [5] (impactor component 2, size cut-off 4.46-8.06 microns, pharynx); 15.47% in series [5] (impactor component 3, size cut-off 2.82-4.46 microns, trachea/bronchi); 16.69% in series [5] (impactor component 4, size cut-off 1.66-2.82 microns, secondary bronchi). The “Percent Deposition of Vancomycin” value in series [5] (impactor component 5, size cut-off 0.94-1.66 microns, terminal bronchi/alveoli) turned out to be 6.38%; in series [5] (impactor component 6, size cut-off 0.55-0.94 microns, alveoli), 1.59%; in series [5] (impactor component 7, size cut-off 0.34-0.55 microns, alveoli), 0.51%; in series [5] (impactor component 8, size cut-off <0.34 microns, alveoli) it was 0.27%. Besides, the “geometric size of microspheres” value in series [3] (10 mg/ml vancomycin, 5 mM sodium citrate pH 5.0, 15% v/v n-propanol, light microscopy) is reported as 1.0-3.0 microns.
